Measured values as given in PubChem BioAssay (NCI).
Values joined by “and” are separate entries in the source; they are usually repeats but may differ in a detail not shown here. Identical values can stand only once.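 Briefly, cells in 96-well plates were exposed to five compound concentrations for 48 h, and endpoints were estimated by linear interpolation. The concentration for 50% growth inhibition is given as GI50. TGI: total growth inhibition.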

Assays:
Test in all cases: NCI tumour cell line growth inhibition, 48 h
[1] = system: IGROV1 ovarian
[2] = system: K-562 leukemia
[3] = system: CAKI-1 renal
[4] = system: SN12C renal
[5] = system: OVCAR-3 ovarian
[6] = system: NCI-H226 lung
[7] = system: PC-3 prostate
[8] = system: COLO 205 colon
[9] = system: RPMI-8226 leukemia
[10] = system: HS 578T breast

In the case of `O=c1oc2ccc(Cl)cc2c(=O)n1-c1ccc(F)cc1F`, the GI50 [1] is reported as 1.74 µM, the TGI [1] is reported as > 100 µM and the GI50 [2] is reported as 2.03 µM. The TGI [2] was > 100 µM, the GI50 [3] was 1.45 µM and the TGI [3] was 5.6 µM. For the same compound, the GI50 [4] was 1.67 µM, the TGI [4] was 8.78 µM and the GI50 [5] was 2.24 µM. The TGI [5] was 18.2 µM, the GI50 [6] was 1.41 µM and the TGI [6] was 5.87 µM. It also gave a GI50 [7] of 1.07 µM, a TGI [7] of 4.03 µM and a GI50 [8] of 7.92 µM. It also gave a TGI [8] of 23.9 µM, a GI50 [9] of 0.994 µM and a TGI [9] of 4.18 µM. It also gave a GI50 [10] of 1.55 µM and a TGI [10] of 7.66 µM.
In the case of `CC1OC(CC(=O)O)Cc2c1c(O)c1c(O)cc(-c3cc(=O)c4c(=O)c5c(c(=O)c=4c3=O)CC(CC(=O)O)OC5C)c(O)c1c2O` (configuration not stated), the TGI [1] is reported as > 86.3 µM, the GI50 [2] is reported as 61.1 µM and the TGI [2] is reported as > 83.6 µM. The GI50 [3] was 23.6 µM, the TGI [3] was 87.5 µM and 52.7 µM and the GI50 [4] was 29.2 µM. The TGI [4] was 32 µM, the GI50 [5] was 37 µM and the TGI [5] was > 58.6 µM. The GI50 [6] was 46.8 µM, the TGI [6] was > 75.4 µM and the TGI [7] was 64.3 µM. The GI50 [8] was 29.9 µM, the TGI [8] was 18.1 µM and 92.9 µM and the GI50 [9] was 20.9 µM. For the same compound, the TGI [9] was 81.6 µM and 68.7 µM and the GI50 [10] was 38.3 µM.
In the case of `CCc1cccc(NC(=O)Nc2ccc(Oc3ccc4nc(NC(=O)OC)[nH]c4c3)cc2)c1`, the GI50 [1] is reported as 5.37 µM, the TGI [1] is reported as > 25 µM and the GI50 [2] is reported as 0.153 µM. For the same compound, the TGI [2] was > 25 µM, the GI50 [3] was > 15.4 µM and the TGI [3] was > 25 µM. The GI50 [4] was 8.43 µM, the TGI [4] was > 25 µM and the GI50 [5] was 3.65 µM. The TGI [5] was 10 µM, the GI50 [6] was 5.03 µM and the TGI [6] was > 20.7 µM. The GI50 [7] was 4.9 µM, the TGI [7] was 19.6 µM and the GI50 [8] was 6.8 µM. For the same compound, the TGI [8] was > 17.9 µM, the GI50 [9] was 12.5 µM and the TGI [9] was > 25 µM. For the same compound, the GI50 [10] was 1.41 µM and the TGI [10] was 19.2 µM.
With `Cc1ccc2[nH]c(O)c(N=Nc3ccccc3[N+](=O)[O-])c2c1` the TGI [1] was 20 µM, the TGI [2] was > 100 µM and the TGI [3] was > 100 µM. The TGI [4] was > 100 µM, the TGI [5] was 99.6 µM and the TGI [6] was 47.5 µM. The TGI [7] was > 100 µM, the TGI [8] was > 100 µM and the TGI [9] was > 100 µM. The TGI [10] was 28.9 µM.
`C/C(CC(C)(C)N1CC1)=N\NC(=O)Nc1cccc2ccccc12` gave a GI50 [1] of 4.19 µM, a TGI [1] of 36.9 µM and a GI50 [2] of 3.56 µM. The TGI [2] was 24.5 µM, the GI50 [3] was 3.73 µM and the TGI [3] was 13.2 µM. It also gave a GI50 [4] of 5.76 µM, a TGI [4] of 77.9 µM and a GI50 [5] of 2.32 µM. For the same compound, the TGI [5] was 5.92 µM, the GI50 [6] was 3.51 µM and the TGI [6] was 14.9 µM. It also gave a GI50 [7] of 5.32 µM, a TGI [7] of 23.2 µM and a GI50 [8] of 2.39 µM. The TGI [8] was 7.19 µM, the GI50 [9] was 2.71 µM and the TGI [9] was 8.74 µM. The GI50 [10] was 2.45 µM and the TGI [10] was 24.7 µM.
`COc1cc(NS(C)(=O)=O)ccc1Cc1c2ccccc2nc2ccccc12` was tested, and the GI50 [1] was 0.414 µM, the TGI [1] was 2.88 µM and the GI50 [2] was 0.307 µM. For the same compound, the TGI [2] was 2.4 µM, the GI50 [3] was 0.139 µM and the TGI [3] was 1.53 µM. The GI50 [4] was 0.0742 µM, the TGI [4] was 1.17 µM and the GI50 [5] was 0.785 µM. It also gave a TGI [5] of 2.06 µM, a GI50 [6] of 0.107 µM and a TGI [6] of 0.462 µM. For the same compound, the GI50 [7] was 0.461 µM, the TGI [7] was 15.6 µM and the GI50 [8] was 0.0812 µM. It also gave a TGI [8] of 2.4 µM, a GI50 [9] of 0.377 µM and a TGI [9] of 3.28 µM. It also gave a GI50 [10] of 1.72 µM and a TGI [10] of 8.17 µM.
`CCN1C(=O)N(CC)C2C1NN=c1s/c(=C\c3ccc(C(F)(F)F)cc3)c(=O)n12` (configuration not stated) gave a GI50 [1] of 0.576 µM, a TGI [1] of 33.1 µM and a GI50 [2] of 0.294 µM. The TGI [2] was > 39.8 µM, the GI50 [3] was 0.328 µM and the TGI [3] was 36.4 µM. It also gave a GI50 [4] of 0.678 µM, a TGI [4] of 20 µM and a GI50 [5] of 0.252 µM. For the same compound, the TGI [5] was 0.635 µM, the GI50 [6] was 1.14 µM and the TGI [6] was > 24.8 µM. The GI50 [7] was 0.385 µM, the TGI [7] was > 41.1 µM and the GI50 [8] was 0.256 µM. The TGI [8] was 0.888 µM, the GI50 [9] was 0.389 µM and the TGI [9] was 8.67 µM. The GI50 [10] was 0.349 µM and the TGI [10] was > 42.5 µM.
Work on `Cc1ccc(-c2nc(/C=N/Nc3cc(C)nc4ccc(Br)cc34)c(C)o2)cc1` yielded a GI50 [1] of 1.84 µM, a TGI [1] of 3.52 µM and a GI50 [2] of 1.93 µM. It also gave a TGI [2] of 4.58 µM, a GI50 [3] of 1.73 µM and a TGI [3] of 3.12 µM. It also gave a GI50 [4] of 1.88 µM, a TGI [4] of 3.69 µM and a GI50 [5] of 1.88 µM. It also gave a TGI [5] of 3.36 µM, a GI50 [6] of 15 µM and a TGI [6] of 42.1 µM. It also gave a GI50 [7] of 1.71 µM, a TGI [7] of 3.3 µM and a GI50 [8] of 2.03 µM. For the same compound, the TGI [8] was 3.97 µM, the GI50 [9] was 2.05 µM and the TGI [9] was 4.71 µM. The GI50 [10] was 17 µM and the TGI [10] was 38.6 µM.
For `CCn1c(SCC(=O)Nc2cc(C(F)(F)F)ccc2Cl)nc2ccccc2c1=O`, the GI50 [1] was 28.1 µM, the TGI [1] was > 100 µM and the GI50 [2] was > 100 µM. For the same compound, the TGI [2] was > 100 µM, the GI50 [3] was 24 µM and the TGI [3] was > 100 µM. The GI50 [4] was 76.9 µM, the TGI [4] was > 100 µM and the GI50 [5] was 43.2 µM. The TGI [5] was > 100 µM, the GI50 [6] was 29.9 µM and the TGI [6] was > 100 µM. For the same compound, the GI50 [7] was 14 µM, the TGI [7] was > 100 µM and the GI50 [8] was > 100 µM. The TGI [8] was > 100 µM, the GI50 [9] was > 100 µM and the TGI [9] was > 100 µM. For the same compound, the GI50 [10] was 13 µM and the TGI [10] was 48.7 µM.
`CCOC(=O)c1c2c(n3ccc(NC(=O)CCN4CCCCC4)cc13)C(=O)c1ncccc1C2=O` was tested, and the GI50 [1] was 0.348 µM, the TGI [1] was 2.54 µM and the GI50 [2] was 0.117 µM. For the same compound, the TGI [2] was 2.57 µM, the GI50 [3] was 0.0279 µM and the TGI [3] was 4.18 µM. It also gave a GI50 [4] of 0.111 µM, a TGI [4] of 2.33 µM and a GI50 [5] of 1.14 µM. The TGI [5] was 2.64 µM, the GI50 [6] was 4.32 µM and the TGI [6] was 11.3 µM. For the same compound, the GI50 [7] was 1.2 µM, the TGI [7] was 2.63 µM and the GI50 [8] was 1.18 µM. The TGI [8] was 2.75 µM, the GI50 [9] was 1.41 µM and the TGI [9] was 4.49 µM. For the same compound, the GI50 [10] was 0.351 µM and the TGI [10] was 6.57 µM.
`FC(F)(F)c1nc(SCc2ccc(Cl)cc2)n[nH]1` was tested, and the TGI [1] was > 100 µM, the TGI [2] was > 100 µM and the TGI [3] was > 100 µM. For the same compound, the TGI [4] was > 100 µM, the TGI [5] was > 100 µM and the TGI [6] was > 100 µM. The TGI [7] was > 100 µM, the TGI [8] was > 100 µM and the TGI [9] was > 100 µM. For the same compound, the TGI [10] was > 100 µM.
In the case of `CCc1[nH]nc(C(N)=O)c1N=NN(C)C`, the TGI [1] is reported as > 100 µM, the TGI [2] is reported as 66.7 µM and the TGI [3] is reported as > 100 µM. The TGI [4] was > 100 µM, the TGI [5] was > 100 µM and the TGI [6] was > 100 µM. The TGI [7] was > 100 µM, the TGI [8] was > 100 µM and the TGI [9] was > 100 µM. For the same compound, the TGI [10] was > 100 µM.
`CC1=C2[C@@H](CC1)[C@]1(C)O[C@@](C(C)C)(C[C@H]1OC(=O)CO)[C@H]2OC(=O)CCCc1ccccc1` showed a GI50 [1] of 3.71 µM, a TGI [1] of 14.1 µM and a GI50 [2] of 5.88 µM. The TGI [2] was 44.7 µM, the GI50 [3] was 4.24 µM and the TGI [3] was 16.7 µM. The GI50 [4] was 4.52 µM, the TGI [4] was 18 µM and the GI50 [5] was 6.94 µM. It also gave a TGI [5] of 22.5 µM, a GI50 [6] of 6.04 µM and a TGI [6] of 22.9 µM. The GI50 [7] was 3.63 µM, the TGI [7] was 16.1 µM and the GI50 [8] was 6.52 µM. The TGI [8] was 21.8 µM, the GI50 [9] was 3.08 µM and the TGI [9] was > 100 µM. It also gave a GI50 [10] of 2.43 µM and a TGI [10] of 9.23 µM.
